“Also recorded” adds a separate entry of the source. Where a SMILES comes first, the peptide text is derived from it. The star is where a group is joined. Cbz = O=C(OCc1ccccc1)*; CHN2 = [N-]=[N+]=C*; tBu = CC(C)(C)*
Columns and labels:
[1] = system: EboV Zaire GP; type: cell-based
[2] = system: VSV G; type: cell-based, vesicular stomatitis virus (VSV)
[3] = system: Cote d'Ivoire GPΔMuc; type: cell-based, Ebola Cote d'Ivoire
[4] = system: Sudan GPΔMuc; type: cell-based, Ebola Sudan
[5] = system: Reston GPΔMuc; type: cell-based, Ebola Reston
[6] = system: Marburg-GP; type: cell-based, Marburg virus
[7] = system: EboV-Zaire (1995 strain); type: cell-based
[8] = system: Marburg (Musoke strain) virus; type: cell-based
[9] = system: CatB; type: cell-based
[10] = target: T1, CatL (Chlorocebus aethiops, UniProt Q9GKL8); type: cell-based
T1 construct: CatB and Cathepsin L (CatL) enzymatic activities in CA074-treated cells; endogenous in cells; host or cells: Vero cells
T1 sequence (Q9GKL8 114-333): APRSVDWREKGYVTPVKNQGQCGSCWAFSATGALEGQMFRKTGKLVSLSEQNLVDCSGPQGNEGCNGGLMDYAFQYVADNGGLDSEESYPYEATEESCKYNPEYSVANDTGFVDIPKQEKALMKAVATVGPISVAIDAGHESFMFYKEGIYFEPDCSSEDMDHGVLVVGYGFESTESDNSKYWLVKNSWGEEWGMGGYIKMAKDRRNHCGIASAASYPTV

[11] = system: cell-cell fusion mediated by Nipah virus glycoproteins F and G; type: cell-based; conditions: 24 hours

SMILES | EboV GP-dependent infection of Vero cells [1] | block of infection, Ebola Zaire [1] | reduction of infection in the absence of detectable CatB activity [1] | VSV G-dependent infection [2] | block of infection, Cote d'Ivoire [3] | inhibition of infection, Sudan [4] | infectivity of Reston [5] | infectivity of Marburg [6] | expression of cell-associated GP1 [7] | inhibition of growth of Marburg virus on Vero cells [8] | approximate level of cellular CatB activity (B %) [9] | approximate level of cellular CatL activity (L %) [10] | infection, Zaire [1] | infection, Cote d'Ivoire [3] | infection, Sudan [4] | infection, Reston [5] | infection, Marburg [6] | inhibition of CatB activity [9] | inhibition of CatL activity [10] | cell-cell fusion by Nipah virus glycoproteins (syncytia) [11]
CCCNC(=O)[C@H]1O[C@@H]1C(=O)N[C@H](C(=O)N1CCC[C@H]1C(=O)O)[C@@H](C)CC [CA074] | inhibited infection | ~99% | ~99.9% | Neither compound inhibited | ~99% | 90% | unaffected | unaffected | markedly reduced | not each alone | ~10% | ~100% | – | – | – | – | – | – | – | –
CC(C)(C)Oc1ccc(C[C@H](NC(=O)[C@H](Cc2ccccc2)NC(=O)OCc2ccccc2)C(=O)C=[N+]=[N-])cc1 [FYdmk, Z-Phe-Tyr-(tBu)-diazomethylketone] (Cbz-Phe-Tyr(tBu)-CHN2) | inhibited infection | – | – | Neither compound inhibited | – | – | – | – | – | not each alone | ~10% | ~0% | blocked | blocked | blocked | blocked | blocked | can inhibit | can inhibit | dramatically reduces cell-cell fusion; also recorded: inhibits cell-cell fusion

Reference: patent publication US8232240B2, “Inhibitors of enveloped virus infectivity” (priority 2005, dated 2012)
